The values that follow come from patent publication US9340577B2, “HLA binding motifs and peptides and their uses” (priority 1992, dated 2016).

In general, IC50 refers to the midpoint of a concentration-inhibition curve.

No end group written: not given here. Where only a bound is given, the exact number is not on record here.

What all share (assay): biochemical
One assay deals with A*2902 (Homo sapiens, UniProt P04439, A270S/D101N/D185E/E176V/E277Q/E87Q/F33T/G231S/H175R/I121M/I218V/I322F/K168Q/L300P/L318F/M331R/P208A/P217A/Q86L/T323A/T345S/V100A/V358M). Type of assay: binding.
For another assay, the target named is HLA-A1 (A*0101) (Homo sapiens, UniProt P04439, A114D/A174V/A182V/D101N/D185E/E176A/E190D/L180R/Q94H/R68K/S129P/T187R/V100A/V91M/W191G). Type of assay: binding.
The next assay addresses A*3002 (Homo sapiens, UniProt P04439, D101N/D140H/D185E/E176R/F33S/G80R/H175R/K168Q/Q94H/R138E/R41S/V100E). Type of assay: binding.
The target of the next assay is DR4w4 (DRB1*0401) (Homo sapiens, UniProt P01903+P01911, A100K/A169T/F76Y/I96L/K127E/L162R/M171V/N62H/P40V/Q125Y/R42H/S133A/S149N/S66Y/V115G/V209L/W38E). Type of assay: binding.
The target of a further assay is DR1 (DRB1*0101) (Homo sapiens, UniProt P01903+P01911, A100R/D57E/F55L/F60I/F76Y/I96L/L162R/M171V/P40L/Q125E/R42F/V115G/Y59C). Format: binding.
The target in another assay is DRB5*0101 (Homo sapiens, UniProt P01903+Q30154). To be noted: Binding affinity DRB5 *0101.
A further assay concerns the target DRB1*0405 (Homo sapiens, UniProt P01903+P01911, A100R/A169T/D86S/F76Y/I96L/K127E/L162R/M171V/N62H/P40V/Q125Y/R42H/S133A/S149N/S66Y/V115G/V209L/W38E). Type of assay: binding.
For another assay, the target named is DRB1*1101 (Homo sapiens, UniProt P01903+P01911, A100R/A169T/A87E/I96F/K41T/L162R/M171V/P40S/Q125H/Q178H/Q39Y/Q99D/R42S/S66Y/T262R/V115G/W38E). As to conditions: Binding affinity DRB1 *1101.
In the next assay the target is DRB1*0901 (Homo sapiens, UniProt P01903+P01911, A100R/A103E/D57H/D86V/F55Y/F60I/F76Y/I96F/K127E/L162R/M171V/P40D/Q125H/Q99R/R33Q/R42F/S133A/S66N/T210M/V115G/W38K/Y107V/Y59G/Y89S). Format: binding.
Another assay deals with DRB1*0802 (Homo sapiens, UniProt P01903+P01911, A100R/A103L/A169T/F76Y/H45Y/I96F/K41T/L162R/M171V/P40S/Q125H/Q178H/Q39Y/Q99D/R218S/R42G/S66Y/V115G/W38E). Format: binding.
The next assay has as its target DRB1*1302 (Homo sapiens, UniProt P01903+P01911, A100E/A169T/K41T/L162R/M171V/P40S/Q125H/Q178H/Q39Y/Q99D/R42S/S66N/T262R/V115G/W38E/Y61H). Type of assay: binding.
A further assay addresses DRB4*0101 (Homo sapiens, UniProt P01903+P13762, G164S). Format: binding.
The next assay has as its target DRB1*1201 (Homo sapiens, UniProt P01903+P01911, A100R/A169T/D57E/D86V/F55L/H45Y/K41T/L162R/M171V/P40S/Q125H/Q178H/Q39Y/Q99D/R42G/S66L/T262R/V114A/V67L/W38E/Y59H/Y61H/Y89S). Type of assay: binding.
The target in the next assay is DRB1*1501 (Homo sapiens, UniProt P01903+P01911). Type of assay: binding.
The next assay addresses DRB1*0301 (Homo sapiens, UniProt P01903+P01911, A100K/A102G/A103R/A169T/F55Y/I96L/K41T/L162R/M171V/P40S/Q125H/Q178H/Q39Y/R42S/S66N/T106N/T262R/W38E/Y61H). Type of assay: binding.
The target in a further assay is DRB3*0101 (Homo sapiens, UniProt P01903+P79483). Format: binding.
The target of another assay is DR7 (DRB1*0701) (Homo sapiens, UniProt P01903+P01911, A100R/A102G/A103Q/D57E/D86V/E43K/F76Y/K127E/L162R/M171V/P40G/Q125H/Q99D/R33Q/R42Y/R54Q/S133A/S66F/T210M/V115G/Y107V/Y59L/Y89S). Type of assay: binding.

A*3002, sequence (P04439 whole entry, looked up, the tested form may be a part, stated change not applied): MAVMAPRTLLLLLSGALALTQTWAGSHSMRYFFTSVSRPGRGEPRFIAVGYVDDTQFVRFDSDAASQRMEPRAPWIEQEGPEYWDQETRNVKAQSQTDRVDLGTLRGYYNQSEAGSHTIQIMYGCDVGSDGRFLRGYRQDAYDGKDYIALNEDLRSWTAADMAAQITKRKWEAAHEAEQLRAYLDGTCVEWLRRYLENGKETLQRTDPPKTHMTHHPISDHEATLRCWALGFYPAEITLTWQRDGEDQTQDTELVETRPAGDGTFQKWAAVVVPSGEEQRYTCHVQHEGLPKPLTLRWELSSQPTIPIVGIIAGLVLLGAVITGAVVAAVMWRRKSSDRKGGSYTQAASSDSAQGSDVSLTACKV
DRB1*1101, sequence (P01903 26-254 limits assumed, other chains not shown): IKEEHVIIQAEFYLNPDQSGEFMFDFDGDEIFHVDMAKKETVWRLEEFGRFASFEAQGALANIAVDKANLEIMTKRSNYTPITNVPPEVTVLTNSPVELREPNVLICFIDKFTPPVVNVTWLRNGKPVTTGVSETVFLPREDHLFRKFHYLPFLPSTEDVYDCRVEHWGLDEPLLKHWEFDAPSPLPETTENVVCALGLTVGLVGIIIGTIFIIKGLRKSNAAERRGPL
DRB1*1302, sequence (P01903 26-254 limits assumed, other chains not shown): as above
DRB1*0301, sequence (P01903 26-254 limits assumed, other chains not shown): as above

As to CSMSYTWTGA [Peptide 1489.14], the IC50 on A*2902 and against HLA-A1 (A*0101) was over 20000 nM in each case.

For the sequence FSITNWLWY [Peptide 9015.0008], the IC50 on A*2902 was determined as 37 nM; against A*3002, 870 nM; at HLA-A1 (A*0101), 74 nM.

As for ITKIQNFRVY [Peptide 9015.0173], the IC50 at A*2902 was found to be 1800 nM; at HLA-A1 (A*0101) it was 9470 nM.

Consider IVNRVRQGY [Peptide 1595.07], for which the IC50 stood at 2030 nM against A*2902, 6.3 nM at A*3002 and 19800 nM at HLA-A1 (A*0101).

Take LADQLIHMHY [Peptide 9015.0186]: the IC50 amounted to 3070 nM against A*2902, 817 nM against A*3002 and 8.1 nM at HLA-A1 (A*0101).

On to LFDQLIHLY [Peptide 9018.0027], for which the IC50 at A*2902 was determined as 45 nM; against A*3002, 10 nM; against HLA-A1 (A*0101) it was 83 nM.

Regarding LFDQLIHMHY [Peptide 9018.0033], the IC50 against A*2902 turned out to be 280 nM; at A*3002, 47 nM; against HLA-A1 (A*0101), 4070 nM.

As to LSQMVQWAY [Peptide 1580.03], the IC50 came out at 124 nM against A*2902, 1.8 nM at A*3002 and 25 nM at HLA-A1 (A*0101).

Take LTDQLIHMHY [Peptide 9018.0032]: the IC50 at A*3002 came out at 350 nM; against HLA-A1 (A*0101) it was 6.6 nM.

In the case of LYCYEQLSDSSDEDE [Peptide 1543.13], the IC50 is 1120 nM against DR4w4 (DRB1*0401); 5690 nM at DR1 (DRB1*0101); over 20000 nM on DRB5*0101; 89 nM against DRB1*0405; 3380 nM at DRB1*1101; over 20000 nM on DRB1*0901. Also, the IC50 against DRB1*0802 was over 20000 nM; at DRB1*1302, over 20000 nM; on DRB4*0101, 12700 nM; against DRB1*1201, over 20000 nM; against DRB1*1501, over 20000 nM; against DRB1*0301, over 20000 nM. The IC50 on DRB3*0101 was over 20000 nM; against DR7 (DRB1*0701), 9770 nM.

Regarding LYDQLIHMHY [Peptide 9018.0034], the IC50 on A*2902 turned out to be 123 nM; on A*3002, 55 nM.

On to MSDSQWIKY [Peptide 1593.05], for which the values for the IC50 against A*2902, against A*3002 and against HLA-A1 (A*0101) were 839 nM, 434 nM and 10 nM, respectively.

In the case of NSNTKATLLY [Peptide 1580.16], the IC50 at A*2902 was determined as 299 nM; against A*3002, 470 nM.

Turning to NTDKSLVKY [Peptide 9018.0008], the IC50 is 5430 nM against A*2902, 3010 nM against A*3002 and 7.3 nM against HLA-A1 (A*0101).

Regarding NYLVKHHMY [Peptide 9018.0037], the IC50 on A*2902 was 63 nM; on A*3002, 12 nM; against HLA-A1 (A*0101), 305 nM.

Turning to QERPRKLPQLCTELQ [Peptide 1543.22], the IC50 is 5120 nM against DR4w4 (DRB1*0401); over 20000 nM at DR1 (DRB1*0101); over 20000 nM at DRB5*0101; over 20000 nM against DRB1*0405; over 20000 nM at DRB1*1101; over 20000 nM against DRB1*0901. Also, the IC50 against DRB1*0802 is over 20000 nM; against DRB1*1302 it was over 20000 nM; against DRB4*0101, 81 nM; against DRB1*1201 it was 11700 nM; on DRB1*1501, over 20000 nM; against DRB1*0301, over 20000 nM. The IC50 on DRB3*0101 and against DR7 (DRB1*0701) was over 20000 nM in each case.

For the sequence QTKGLGISY [Peptide 9015.0031], the IC50 against A*2902 was over 20000 nM; at A*3002, 715 nM; against HLA-A1 (A*0101), over 20000 nM.

Take SSNLQGKLY [Peptide 86.0139]: the IC50 against A*2902 stood at 15900 nM; on A*3002 it was 62 nM; at HLA-A1 (A*0101), 3030 nM.

Take SSSKVSQNY [Peptide 9015.0011]: the IC50 against A*2902 is 1760 nM; against A*3002 it was 32 nM.

For TELNTSLQDIEITCV [Peptide 1543.34], the IC50 at DR4w4 (DRB1*0401), against DR1 (DRB1*0101), at DRB5*0101, against DRB1*0405, on DRB1*1101 and on DRB1*0901 was over 20000 nM throughout. The IC50 at DRB1*0802 is 5520 nM; on DRB1*1302 it was 7070 nM; against DRB4*0101, 922 nM; against DRB1*1201 it was over 20000 nM; against DRB1*1501, over 20000 nM; at DRB1*0301, over 20000 nM. For the same sequence, the IC50 on DRB3*0101 and against DR7 (DRB1*0701) was over 20000 nM throughout.

With VSIEWRKRRY [Peptide 9015.0183], the IC50 on A*2902 was over 20000 nM; at A*3002, 231 nM; at HLA-A1 (A*0101) it was over 20000 nM.

VTFDPIPIHY [Peptide 9015.0153]: the IC50 amounted to 619 nM at A*2902 and 380 nM at A*3002.

With VTRRANGWFY [Peptide 9018.0011], the IC50 was 905 nM on A*2902, 0.71 nM against A*3002 and 25 nM on HLA-A1 (A*0101).

In turn, WFDITKWLWY [Peptide 9015.0160] returned an IC50 against A*3002 of 3390 nM.

WFDITNWLWY [Peptide 9015.0161]: the results for the IC50 against A*2902, on A*3002 and on HLA-A1 (A*0101) were 150 nM, 1660 nM and 986 nM, respectively.

WFSITNWLWY [Peptide 9015.0159]: the IC50 on A*2902 turned out to be 30 nM.

For YRHYQYSLYGKTLEE [Peptide 1543.58], the IC50 on DR4w4 (DRB1*0401) is 4.1 nM; on DR1 (DRB1*0101), 11 nM; at DRB5*0101, 640 nM; on DRB1*0405, 25 nM; at DRB1*1101, 953 nM; against DRB1*0901, 273 nM. In addition, the IC50 is 410 nM on DRB1*0802; 26 nM against DRB1*1302; 2540 nM against DRB4*0101; 12000 nM at DRB1*1201; 2900 nM on DRB1*1501; over 20000 nM on DRB1*0301. Also, the figures for the IC50 at DRB3*0101 and on DR7 (DRB1*0701) were over 20000 nM and 146 nM, respectively.
